COc1cc(/C=C/C(=O)CC(=O)/C=C/c2ccc(O)c(OC)c2)ccc1O
solubility (mole fraction) (in ethanol, 278.15 K): 0.000407 | solubility (mole fraction) (in ethanol, 283.15 K): 0.000497 | solubility (mole fraction) (in ethanol, 288.15 K): 0.000573 | solubility (mole fraction) (in ethanol, 293.15 K): 0.000662 | solubility (mole fraction) (in ethanol, 298.15 K): 0.000769 | solubility (mole fraction) (in ethanol, 303.15 K): 0.000888 | solubility (mole fraction) (in ethanol, 308.15 K): 0.00101 | solubility (mole fraction) (in ethanol, 313.15 K): 0.00113 | solubility (mole fraction) (in ethanol, 318.15 K): 0.00128 | solubility (mole fraction) (in isopropanol, 278.15 K): 0.00146 | solubility (mole fraction) (in isopropanol, 283.15 K): 0.0017 | solubility (mole fraction) (in isopropanol, 288.15 K): 0.00194 | solubility (mole fraction) (in isopropanol, 293.15 K): 0.00219 | solubility (mole fraction) (in isopropanol, 298.15 K): 0.00252 | solubility (mole fraction) (in isopropanol, 303.15 K): 0.00284 | solubility (mole fraction) (in isopropanol, 308.15 K): 0.00317 | solubility (mole fraction) (in isopropanol, 313.15 K): 0.00357 | solubility (mole fraction) (in isopropanol, 318.15 K): 0.004 | solubility (mole fraction) (in n-propanol, 278.15 K): 0.0023 | solubility (mole fraction) (in n-propanol, 283.15 K): 0.0026 | solubility (mole fraction) (in n-propanol, 288.15 K): 0.00291 | solubility (mole fraction) (in n-propanol, 293.15 K): 0.00325 | solubility (mole fraction) (in n-propanol, 298.15 K): 0.0036 | solubility (mole fraction) (in n-propanol, 303.15 K): 0.00401 | solubility (mole fraction) (in n-propanol, 308.15 K): 0.00437 | solubility (mole fraction) (in n-propanol, 313.15 K): 0.00484 | solubility (mole fraction) (in n-propanol, 318.15 K): 0.00526 | solubility (mole fraction) (in propylene glycol, 278.15 K): 0.000715 | solubility (mole fraction) (in propylene glycol, 283.15 K): 0.000827 | solubility (mole fraction) (in propylene glycol, 288.15 K): 0.000967 | solubility (mole fraction) (in propylene glycol, 293.15 K): 0.0011 | solubility (mole fraction) (in propylene glycol, 298.15 K): 0.00126 | solubility (mole fraction) (in propylene glycol, 303.15 K): 0.00143 | solubility (mole fraction) (in propylene glycol, 308.15 K): 0.00161 | solubility (mole fraction) (in propylene glycol, 313.15 K): 0.00182 | solubility (mole fraction) (in propylene glycol, 318.15 K): 0.00206 | solubility (mole fraction) (in water, 278.15 K): 8.34e-09 | solubility (mole fraction) (in water, 283.15 K): 1.16e-08 | solubility (mole fraction) (in water, 288.15 K): 1.59e-08 | solubility (mole fraction) (in water, 293.15 K): 2.15e-08 | solubility (mole fraction) (in water, 298.15 K): 2.94e-08 | solubility (mole fraction) (in water, 303.15 K): 4.03e-08 | solubility (mole fraction) (in water, 308.15 K): 5.38e-08 | solubility (mole fraction) (in water, 313.15 K): 7.06e-08 | solubility (mole fraction) (in water, 318.15 K): 9.32e-08

From BigSolDB 2.1
